# Source: US8168860B2, “Compositions and methods for the modification of physiological responses in plants” (Rohm and Haas Company, priority 2007, dated 2012)
# Test system: ACC oxidase
# Assay: ACC oxidase expression in excised corn stalk sheath tissue, quantitative PCR
# Assay type: cell-based
# Conditions: for ACC Oxidase Expression (relative): normalized to 0 inducer/0 ACC; for AVG ACO Expression: average of corn lines
# Experimental: Corn plants were transformed using the plasmids for Example 1 by microparticle bombardment. Putative transformants were selected using either actinonin or bialaphos and confirmed by PCR analysis. Positive transformants were backcrossed to inbred B73 to increase vigor. Transgenic corn plants produced as described above were tested for modulation of ethylene sensitivity. Modulation of ethylene sensitivity was determined at the molecular level by exposing plants to ethylene and measuring the change in induction of ethylene-induced genes.
# Transgenic corn plants produced as described above were tested for modulation of ethylene sensitivity. Modulation of ethylene sensitivity was determined at the molecular level by exposing plants to ACC, the precursor of ethylene and measuring the change in induction of ethylene-induced genes. Stalk sheath tissue was excised from transgenic T0 corn plants growing in a green house and used in an in vitro bioassay. Excised tissue was treated with either water or 20 μM inducer for 2 days to induce expression of the ethylene insensitive etr1-1 transgene. Following the 2 day induction period, the tissue was treated for one day with 0, 1 or 10 μM ACC to produce ethylene and then harvested. Harvested tissue was immediately placed in RNAlater (Ambion). Total RNA was prepared from the tissue using MagMAX-96 Total RNA Isolation Kit (Ambion). Induction of an ethylene inducible gene (ACC oxidase) was measured using quantitative PCR on an Applied Biosystems 7900 HT Fast Real-Time PCR system (ABI). TaqMan Assay Kit (ABI) was used for reverse transcriptase (RT) and PCR using manufacturer recommended protocols. Corn 18s was used as an internal control to normalize expression for each sample.
# Sequences for the primers and probes were as follows: […]
# In order to determine gene expression, ACC oxidase expression in the 0 μM inducer plus 0 μM ACC control treatment was normalized for each respective corn line.
compound,measurement,setting,value
"CCC(N(NC(=O)c1ccc2c(c1C)O[C@@H](CO)CO2)C(=O)c1cc(C)cc(C)c1)C(C)(C)C (stereo partly drawn) [inducer, 3,5 Dimethyl-benzoic acid N-(1-ethyl-2,2-dimethyl-propyl)-N′-(3S-hydroxymethyl-5-methyl-2,3-dihydro-benzo[1,4]dioxine-6-carbonyl)hydrazide]",ACC Oxidase Expression (relative),"Corn Line 4.5, 20 μM inducer/0 ACC",1.351
same,ACC Oxidase Expression (relative),"Corn Line 4.5, 20 μM inducer/1 μM ACC",1.081
same,ACC Oxidase Expression (relative),"Corn Line 4.5, 20 μM inducer/10 μM ACC",0.4184
same,ACC Oxidase Expression (relative),"Corn Line 4.6, 20 μM inducer/0 ACC",1.148
same,ACC Oxidase Expression (relative),"Corn Line 4.6, 20 μM inducer/1 μM ACC",0.7581
same,ACC Oxidase Expression (relative),"Corn Line 4.6, 20 μM inducer/10 μM ACC",0.3348
same,ACC Oxidase Expression (relative),"Corn Line 4.7, 20 μM inducer/0 ACC",0.7452
same,ACC Oxidase Expression (relative),"Corn Line 4.7, 20 μM inducer/1 μM ACC",1.388
same,ACC Oxidase Expression (relative),"Corn Line 4.7, 20 μM inducer/10 μM ACC",0.2557
same,ACC Oxidase Expression (relative),"Corn Line 10.2, 20 μM inducer/0 ACC",1.378
same,ACC Oxidase Expression (relative),"Corn Line 10.2, 20 μM inducer/1 μM ACC",0.4928
same,ACC Oxidase Expression (relative),"Corn Line 10.2, 20 μM inducer/10 μM ACC",0.6761
same,ACC Oxidase Expression (relative),"Corn Line 10.4, 20 μM inducer/0 ACC",0.3437
same,ACC Oxidase Expression (relative),"Corn Line 10.4, 20 μM inducer/1 μM ACC",0.3591
same,ACC Oxidase Expression (relative),"Corn Line 10.4, 20 μM inducer/10 μM ACC",1.821
same,ACC Oxidase Expression (relative),"Corn Line 10.5, 20 μM inducer/0 ACC",0.6804
same,ACC Oxidase Expression (relative),"Corn Line 10.5, 20 μM inducer/1 μM ACC",0.06813
same,ACC Oxidase Expression (relative),"Corn Line 10.5, 20 μM inducer/10 μM ACC",0.1983
same,ACC Oxidase Expression (relative),"Corn Line B73, 20 μM inducer/0 ACC",1.964
same,ACC Oxidase Expression (relative),"Corn Line B73, 20 μM inducer/1 μM ACC",0.09506
same,ACC Oxidase Expression (relative),"Corn Line B73, 20 μM inducer/10 μM ACC",0.2589
same,AVG ACO Expression,20 μM inducer/0 ACC,1.087
same,AVG ACO Expression,20 μM inducer/1 μM ACC,0.6061
same,AVG ACO Expression,20 μM inducer/10 μM ACC,0.5662
same,average expression of ACC oxidase in the transgenic corn lines,presence of inducer plus ACC,repressed
same,"ethylene insensitivity, based on decreased expression of ethylene inducible genes","transgenic corn with etr1-1 cassettes, presence of inducing compound, exposed to ethylene",demonstrated ethylene insensitivity
